According to patent US20240025849A1 (MAX DELBRÜCK-CENTRUM FÜR MOLEKULARE MEDIZIN IN DER …, priority 2020, published 2024):
Entries after “also recorded” stand apart in the source; their conditions may differ.

Tests used:
[1] = system: oligodendrocyte cell line OLN-93; test: AlamarBlue assay in OLN-93 cells; assay type: cell-based; details: 2.5 μM C1, 48 hours, unstimulated
Experimental: Cell culture of immortalized cell lines: microglia cell line BV2, and oligodendrocyte cell line OLN-93. The immortalized murine microglia cell line BV2 (Blasi et al., 1990) and the oligodendrocyte cell line OLN-93 (Richter-Landsberg and Heinrich, 1996) were incubated in T75 flasks with plain medium. The cells were split every 2 to 3 days at the dilution 1:10 before they reached confluence. To do so, the cells were washed twice with PBS, followed by up to 5 min of trypsination. The trypsination was stopped using plain medium. The cells were centrifuged at 300 g for 10 min at 4° C., the supernatant was discarded, and the cells were resuspended in new medium and seeded into a new flask.
AlamarBlue assay. Cells were seeded according to the protocols described above, after compounds and stimuli were added, the cells were washed once with HBSS (37° C.) and 100 μl of a 1:10 AlamarBlue (Thermo Fisher Scientific) dilution in plain medium was added. The conversion of resazurin to resorufin was measured by absorbance (absorbance wavelength of 570 nm and a reference wavelength of 600 nm) after 3 hours.
The inventors evaluated the metabolic activity, proliferation and cell death of primary cultured neonatal microglia, primary cultured neonatal astrocytes and the oligodendrocyte cell line OLN-93 under physiological conditions. […]

[2] = system: primary cultured neonatal microglia; test: LPS induced NO release, HTS setup (Griess reagent); assay type: cell-based; details: Mus musculus, 1 h pre-treatment, 1 μg/ml LPS 48 h, read-out: IC50, LPS-induced production of NO
Experimental: Primary cultured neonatal microglia. For preparation of cultured neonatal microglia, P0-P3 mice were used. 10 brains were extracted, meninges and cerebellum were removed and put on ice with Hank's balanced salt solution (HBSS). The dissected brains were washed 3 times before adding 400 μL trypsin (0.1 mg/L) and DNAse (5 μg/L) in phosphate buffered saline (PBS). After 2 min of incubation with this solution, the reaction was blocked by adding plain medium. After removal of the medium, 1 mg DNAse was added and the cells were mechanically dissociated, with a Pasteur pipette followed by a glass pipette. The cells were centrifuged for 10 min at 129 g at 4° C. The supernatant was discarded. The pellet was resuspended in plain medium and plated (2.5 brains/flask) in Poly-L-Lysine coated flasks. […]
High throughput screening (HTS). […] Incubation with LPS and compounds was continued for 48 hours, followed by addition of 25 μl of 2-fold concentrated Griess reagent and absorbance reading at 540 nm in a plate reader (Safire2, Tecan, Maennedorf, Switzerland). Active compounds were identified by decreased Z-scores of the absorbance signal. […]
Concentration-dependent validation and viability determination. […] Each concentration was measured in duplicate. […] Finally, the resorufin fluorescence was detected at an excitation wavelength of 530 nm and emission of 570 nm. […]

eNOS = molecular target: T1, eNOS (Homo sapiens, UniProt P29474); test: NOS enzyme activity assay (Eurofins), eNOS; assay type: biochemical; details: C1: 1 nM and 1 μM; 30 min reaction
T1 construct: Eurofins (contract assay service)
Experimental: To evaluate the direct influence of cl on the different isoforms of NOS, an enzyme activity assay was conducted by Eurofins. C1 was mixed with the enzyme buffer, which included co-factors and substrates and by adding the enzyme the reaction was initiated. After 30 min the reaction was stopped, and NO concentration was measured. The results are normalised to positive control performed without any additional compounds and are presented as percentage in inhibition. […] To test the compounds effect on iNOS a concentration range from 1 μM up to 5 μM were applied (1, 10, 100 μM, 1, 10, 100 nM, 1, and 5 μM), and for testing eNOS and nNOS 1 nM and 1 μM were applied.

For `COc1ccc(NC(=O)C(NC(=O)C2CCCN2C(=O)OCc2ccccc2)c2ccc(OC)cc2)cc1` (stereo not drawn) [C1], the “metabolic activity of OLN-93 cells” value [1] was “increased the metabolic activity in oligodendrocytes compared to DMSO (p=0.0431) but not compared to plain medium; also recorded: not affected”, the IC50 [2] was 224 nM and the “enzymatic activity of eNOS” value (eNOS) was “does not interfere”.
